“Also recorded” adds a separate entry of the source.
Columns and labels:
[1] = Pharmacokinetic studies in plasma and organs, 1 mg/kg; type: in vivo, rats; settings: for Cmax: male, rat
Method: Whenever possible, the PK profiles of MnF3Pen were compared to MnTnBuOE-2-PyP^5+ (MnBuOE, Mn2), the drug presently in two clinical trials.
3 rats were used per time point. The following time points were tested: 30 min, 1, 2, 6, 24 hours, and 3 and 7 days. The tissues were taken after the rats were perfused with PBS to eliminate blood content of organs and, therefore its interference with blood content of organs. At 6 h, three additional rats were used to assess the effect of perfusion. In addition to plasma, the following organs were analyzed: liver, kidney, prostate, penis, testis, rectum, bladder, and brain. We have collected liver due to Mn porphyrins accumulating at the highest level in this organ; it then serves as a depot to maintain levels of drug in plasma and other organs. We also took the brain because toxicity of Mn porphyrins has been seen at that level present in the brain. Whenever possible the comparison with MnBuOE has been done. […] MnBuOE was used as internal standard.

[2] = Metal-centered reduction potential for the Mn^IIIP/Mn^IIP redox couple; type: physicochemical; settings: vs normal hydrogen electrode
[3] = Maximal tolerable dose (MTD) studies; type: in vivo, rats; settings: subcutaneous
Method: The dose we identified as entirely safe was then given for 2 weeks. […] A dose above 0.5 mg/kg of MnTF3Pen-2-PyP^5+ seems to impose some toxicity expressed as hypotonia and reluctance to ambulate. We have thus decided to continue with 0.5 mg/kg which appears as safe non-toxic MTD dose for multiple dosing.

wild strain E. coli = test: Toxicity by aerobic growth of wild strain E. coli; type: cell-based; settings: vs MnTnHex-2-PyP^5+ and MnTnBuOE-2-PyP^5+
Method: Herein we explored the member of a new class of Mn porphyrin-based therapeutics, MnTF3Pen-2-PyP^5+ (MnTF3Pen, Mn4) (FIG. 1). We have maintained major structural properties that support the redox-activity of MnPs, yet modified peripheral substituents by introducing polar fluorine atoms. […] The properties of Mn porphyrins (given in arbitrary units) which cumulatively define their therapeutic index: SOD-like activities, lipophilicities and toxicities. […] Toxicities are evaluated based on the aerobic growth of wild strain E. coli—a simple but accurate assay used for over 2 decades to identify the compounds with clinical potential.

[4] = Brain accumulation of MnPs with different administration routes; type: in vivo; settings: route-dependent
Source text: MnF3Pen accumulates in the brain at levels which are (route-dependently) up to 50% lower than those of MnBuOE due to its more polar fluorine atoms.

[5] = Toxicity in a rat and mouse study; type: in vivo
Source text: Also, such differences could not have been anticipated based just on the aqueous chemistry and diverse physical properties of those compounds. Such effects likely result from the differences in the polarities of those molecules: strongly polar character of 12 fluorine atoms relative to 4 polar oxygen atoms. […] Despite being equally lipophilic, a higher efficacy of MnTF3Pen-2-PyP^5+ than MnTnBuOE-2-PyP^5+ was observed.

[6] = Ability of MnP to catalyze ascorbate oxidation, initial rates assessed spectrally; settings: initial rate of ascorbate oxidation; 10 μM MnP, 1 mM Asc, aerobic, 25 °C, pH 7.8
[7] = Lipophilicity by TLC retention factor Rf on silica; type: physicochemical; settings: vs two non-fluorinated lipophilic analogs
Source text: Fluorination enhances the lipophilicity of MnPs as described with TLC retention factor, Rf (compound path/solvent path). Rf was obtained on silica gel plates using acetonitrile:KNO3(sat):water=8:1:1 as previously described (Tovmasyan A, Carballal S, Ghazaryan R, Melikyan L, Weitner T, Maia C G, Reboucas J S, Radi R, Spasojevic I, Benov L, and Batinic-Haberle I. Rational Design of Superoxide Dismutase (SOD) Mimics: The Evaluation of the Therapeutic Potential of New Cationic Mn Porphyrins with Linear and Cyclic Substituents. Inorg Chem 53: 11467-83, 2014).
In some embodiments, the fluoro-substituted porphyrins of the present invention may have enhanced lipophilicity (e.g., compared to non-fluoro-substituted porphyrins). Lipophilicity can be measured via thin layer chromatography. The relative lipophilicity of a group of compounds can be determined in a given solvent system. […] The fluoro-substituted porphyrins of the present invention suitably have a lipophilicity of greater than zero in a solvent system of acetonitrile:water:KNO3 (saturated aqueous) (8:1:1). Alternatively, the lipophilicity may be quantified by the standard octanol/water partition coefficient (log P). In some embodiments, the lipophilic fluoro-substituted porphyrins may have a greater bioavailability than their hydrophilic analogs. […]

[8] = SOD mimicking: catalysis of O2.^− dismutation; type: biochemical; settings: ability to mimic SOD enzyme in catalysis of O2.^− dismutation
[9] = test system: radiation-induced erectile dysfunction; test: Radioprotection of erectile function after 20 Gy radiation; type: in vivo; settings: rats, 0.5 mg/kg sc, single 20 Gy RT, with and without ascorbate, 9 weeks
Method: Mn4 administration started at 24 hours before RT. Mn4 was given at 0.5 mg/kg sc for the first four weeks daily (except for weekends) and then twice weekly for next five weeks. Single 20 Gy RT dose was given stereotactically.
10 rats per group were studied. MnF3Pen was given at 0.5 mg/kg sc for the first four weeks daily except for weekends, and then twice weekly for the next five weeks.
Single radiation dose of 20 Gy was delivered stereotactically, using image guided small animal radiator.
It was used at 0.1 mg/kg (at week 6 and 9).
Based on earlier studies, erectile dysfunction has been assessed at 9 weeks. […] Mn4 administration started at 24 hours before RT. Mn4 was given at 0.5 mg/kg sc for the first 4 weeks daily except for weekends, and then twice weekly for the next 5 weeks. Single 20 Gy RT dose was given.

prostate tissue = test: Radioprotection of prostate tissue, histopathology (H&E); settings: for radioprotection of prostate tissue: rats, 0.5 mg/kg sc, single 20 Gy RT, 0.5 mg/kg
Method: Tissue was stained with H&E.
Mn4 administration started at 24 hours before RT. Mn4 was given at 0.5 mg/kg sc for the first 4 weeks daily except for weekends, and then twice weekly for the next 5 weeks. Single 20 Gy RT dose was given.
The tissues were preserved, half of them in formalin and another half snap-frozen for different analyses. Prostate is the only tissue directly radiated and the penile function was known to suffer radiation damage.

4T1 breast tumor = test: Mouse flank 4T1 tumor radio- and chemosensitization study, MnP 0.2 mg/kg; type: in vivo; settings: triple combination MnP 0.2 mg/kg sc + ascorbate + radiation, listed as MnTF3Pen-2-PyP^5+
Method: Female Balb/c mice were injected subcutaneously (on flank) with 1 million cells. […] 24 hours after the first injection of Mn porphyrins the radiation started at 2.5 Gy per day for 3 days. Fractionated radiation regime was used to better reflect the clinical scenario. […] Injection of drugs was continued daily. Once the study was completed when mice reached on average 2000 mm^3 volume, the mice were sacrificed, and tumors, normal muscle from opposite leg and liver were collected and levels of Mn porphyrins analyzed by LCMS/MS.

## FC(F)(F)CCCC[n+]1ccccc1C1=C2C=CC3=[N+]2[Mn]24[n]5c1ccc5C(c1cccc[n+]1CCCCC(F)(F)F)=C1C=CC(=[N+]12)C(c1cccc[n+]1CCCCC(F)(F)F)=c1ccc([n]14)=C3c1cccc[n+]1CCCCC(F)(F)F [Mn4, 5,10,15,20-tetra(Mn(III) 5′,5′,5′-trifluoropentylpyridinium-2-yl)porphinato pentachloride]
[1]; 1 mg/kg
  levels in the tissues of interest: higher than 100 nM
  tolerability: well tolerated
[1]; 1 mg/kg, vs MnBuOE
  accumulation in liver: lower accumulation in liver
  plasma half-life: longer plasma half-life
[1]; FIG. 11
  levels in all tissues of interest: above 0.1 μM
[1]; liver, FIG. 11
  highest levels, liver: about 1 μM
[1]; bladder, 1 mg/kg
  Cmax: 450 nM
[1]; penis, 1 mg/kg
  Cmax: 250 nM
[1]; prostate, 1 mg/kg
  Cmax: 150 nM
[1]; rectum, 1 mg/kg
  Cmax: 105 nM
[1]; testes, 1 mg/kg
  Cmax: 190 nM
[2]
  E1/2, mV vs NHE: +288 mV
[3]; rat, in vivo, sc, safe non-toxic dose for multiple dosing
  MTD at 2 weeks: 0.5 mg/kg
[3]
  dose imposing some toxicity (hypotonia, reluctance to ambulate): above 0.5 mg/kg
Wild strain E. coli
  toxicity: less toxic
[4]
  brain levels lower than those of MnBuOE: up to 50%
[5]
  toxicity compared with MnTnBuOE-2-PyP^5+: less toxicity
[6]
  v0(Asc oxid): 297 nM/s
[7]
  lipophilicity (in words): more lipophilic
[8]
  log kcat (O2−^•): 7.48
[9]
  prevention of radiation-induced erectile dysfunction: fully prevented radiation-induced erectile dysfunction
Prostate tissue; RT+Mn4+Asc group (heading printed twice)
  morphological findings, prostate glands: Local glands presented few large bizarre nuclei, some cells showed enlarged irregular nucleus and obvious nucleolus
Prostate tissue
  radioprotection of prostate tissue: significant radioprotection of prostate tissue
Prostate tissue; listed as MnTF3Pen-2-PyP^5+
  radioprotection of prostate tissue: suppresses radiation (RT) damage to prostate tissue
Prostate tissue; with respect to control non-radiated tissues
  bladder and rectum pathology: no changes on bladder and rectum pathology
4T1 breast tumor
  tumor growth inhibition: larger tumor growth inhibition; also recorded: Strong tumor suppression
